# Test results as given in patent US20230374103A1, “Wnt SIGNALING PATHWAY INHIBITOR” (OSAKA UNIVERSITY, priority 2020, published 2023).
# Residues, ends and D or L forms follow the SMILES beside them.
# Tests used:
# [1] = system: Wnt signaling activation by RSPO; assay: Wnt signaling inhibition test (β-catenin responsive element luciferase reporter); assay type: cell-based; conditions: HEK293 reporter cells; 50 ng/mL wnt3a + 20 ng/mL RSPO1/2/3; 24 hours; peptide tested MHP1-7 (FIG. 2)
# Method: HEK293 cells expressing luciferase under the control of β-catenin responsive element were plated on a 96 -well plastic plate (1×10^4 cells/well) and incubated in the presence or absence of 50 ng/mL of recombinant mouse wnt3a (R&D System, #1324-WN) and recombinant human RSPO1 (R&D System, #4645-RS), recombinant human RSPO2 (PeproTech, #120-43), or recombinant human RSPO3 (PeproTech, #120-44). When these were added at the same time as RANKL peptide, 50 ng/mL of recombinant mouse wnt3a and 20 ng/mL of RSPO1/2/3 were used. After incubation for 24 hours, luciferase activity was analyzed using a luciferase assay system (Promega) and a microplate luminometer (Centro XS3 LB960; Berthold Technologies). The protein concentration of each sample was measured using Takara Bradford Protein Assay Kit (Takara Bio Inc.). The results of luciferase activity were normalized to the protein concentration of each sample.
# [2] = system: bleomycin-induced scleroderma model; assay: Late administration test in bleomycin-induced scleroderma model; assay type: in vivo, C57BL6/J mice; conditions: 800 μg/mouse i.p. 5 days/week for 14 days after 14 days of bleomycin
# Method: (§1) As test animals, C57BL6/J mice (female, 8 weeks were prepared. 200 μg/mouse of bleomycin was subcutaneously injected at a frequency of 5 days/week for 14 days. Subsequently, 800 μg/mouse of saline or RANKL peptide was intraperitoneally administered at a frequency of 5 days/week for 14 days. The nice were sacrificed after 14 days (28 days after the start of bleomycin administration), and the skin tissue of the bleomycin-administered portion was stained with Masson's trichrome to evaluate fibrosis. Further, the expression of collagen gene mRNA, which is a fibrosis index, in the skin was evaluated.
# [3] = system: bleomycin-induced scleroderma model; assay: Early administration test in bleomycin-induced scleroderma model; assay type: in vivo, C57BL6/J mice; conditions: 800 μg/mouse i.p. 5 days/week for 14 days in parallel with bleomycin
# Method: as §1, with “weeks old)” for “weeks”, “days, and in parallel with this,” for “days. Subsequently,”, “body weight was measured periodically during the dosing period. The mice” for “nice”, “sacrificed” for “sacrificed after”, “14” for “14 days (28”, “administration” for “bleomycin administration),”
# A549 cell xenograft = A549 cell xenograft model; assay type: in vivo, BALB/cAJcl-nu/nu; conditions: 600 μg/mouse every day, up to 49 days
# Method: The influence of RANKL peptide on cancer in an A549 cell xenograft model was examined. Specifically, the following procedure was performed. 2×10^6 cells were administered subcutaneously to BALB/cAJcl-nu/nu […]. After one day, 600 μg/mouse of MHP1 was administered every day, and the tumor size was measured up to 49 days. Further, the tumor weight was measured.
smiles,measurement,setting,value
CC[C@H](C)[C@H](NC(=O)[C@H](CO)NC(=O)[C@@H](NC(=O)[C@H](CCCCN)NC(=O)[C@@H](NC(=O)[C@@H](NC(=O)[C@H](Cc1ccc(O)cc1)NC(=O)[C@@H](NC(=O)[C@H](CCSC)NC(=O)[C@H](CC(C)C)NC(C)=O)C(C)C)C(C)C)C(C)C)[C@@H](C)O)C(=O)N[C@@H](CCCCN)C(=O)N[C@H](C(=O)N1CCC[C@H]1C(=O)N[C@@H](CO)C(=O)N[C@@H](CO)C(=O)N[C@@H](Cc1c[nH]cn1)C(=O)N[C@@H](CC(N)=O)C(=O)N[C@@H](CC(C)C)C(=O)N[C@@H](CCSC)C(=O)N[C@@H](CCCCN)C(=O)NCC(=O)NCC(=O)N[C@@H](CO)C(=O)N[C@H](C(=O)N[C@@H](CCCCN)C(=O)N[C@@H](CC(N)=O)C(=O)N[C@@H](Cc1c[nH]c2ccccc12)C(=O)N[C@@H](CO)C(=O)NCC(=O)N[C@@H](CC(N)=O)C(N)=O)[C@@H](C)O)[C@@H](C)CC [MHP1-7] (Ac-LMVYVVKTSIKIPSSHNLMKGGSTKNWSGN-NH2),Wnt signaling activation by RSPO (luciferase activity normalized to protein concentration),[1],inhibited
same,"skin thickening and fibrosis (Masson's trichrome, dermis thickness)",[2]; MHP1-7 (FIG. 8),inhibited
same,"expression of the collagen gene mRNA (Colla1, Colla2) in skin","[2]; MHP1-7 (FIGS. 9, 10)",inhibited
same,"skin thickening and fibrosis (Masson's trichrome, dermis thickness)",[3]; MHP1-7 (FIG. 5),inhibited
same,expression of the collagen gene mRNA in skin,[3]; MHP1-7 (FIG. 6),inhibited
same,weight loss (body weight),[3]; MHP1-7 (FIG. 7),suppressed
same,influence on the degree of weight gain,A549 cell xenograft,not confirmed
same,growth of cancer (tumor volume),A549 cell xenograft; MHP1-AcN (FIG. 16),inhibited
